Experiments:
[1] = tested on: 34 kDa Mst kinase (Mst 1 cleavage); test: 34 kDa Mst kinase activation / Mst 1 cleavage in purified osteoclasts; assay type: cell-based; conditions: for activation of the 34 kDa Mst kinase: purified osteoclasts
50 kDa Kinase [2] = test: in-gel kinase assay in HEK 293 transfectants expressing human αvβ3 integrin; assay type: cell-based; conditions: αvβ3 integrin transfected HEK 293 cells
stress reponsive kinases = test: activation of stress responsive kinases by compounds that modify osteoclast function; assay type: cell-based
Method: (§1) Preosteoclasts are generated and purified as described in Example 1. […] Untreated cells are included in the analyses and act as a negative control for kinase activities. Cells are then harvested and lysed in a HEPES (N-(2-hydroxyethyl)piperazine-N′-(2-ethansulfonic acid) or Tris buffer containing the following: β-glycerophosphate (50 mM); Na3VO4 (1 mM); NaF (1 mM); Microcystin LR (1 μM); leupeptin (10 μg/ml); aprotinin (10 μg/ml); phenylmethyl sulfonylfluoride (1 mM). Protein concentrations are determined for each lysate and 5-20 μg are loaded into each lane of a SDS-PAGE (sodium dodecyl sulfate-polyacrylamide gel electrophoresis) gel containing Myelin Basic Protein, or another kinase substrate, which has been polymerized into the gel at a concentration between 50-400 μg/ml. Molecular weight standards are also loaded into one or more lanes of the gels. In-gel kinase assays are run according to a standard procedure based on Kameshita and Fujisawa, 1989 (Anal. Biochem. 183:139-143) and of Gotoh et al., 1990 (Eur. J. Biochem. 193: 661-669), both references being incorporated by reference herein in their entirety. The proteins are electrophoresed in the above gels. The gels are then successively soaked in 50 mM HEPES, pH 7.6; 5 mM 2-mercaptoethanol and each of the following (for each wash): (a) 20% isopropanol; (b) no additions; (c) urea (6 M); (d) Urea (3 M); (e) Urea (0.75 M); and Tween 20 (0.05% vol:vol). Kinase reactions are then run by first soaking the gels in 20 mM HEPES, pH 7.6; 20 mM MgCl2; 2 mM DTT and then in the same buffer containing […] (non-radioactive) with ca. 1000 cpm/pmol ^32P-γ-ATP. The gels are then washed six times with 5% trichloroacetic acid and 1% pyrophosphate. The gels are then stained with Coomassie brilliant blue dye (0.125%) in 50% methanol, 10% acetic acid; destained with 30% methanol, 10% acetic acid; soaked in 2% glycerol; and dried using a gel dryer. The gels are then exposed to autoradiography film for times ranging from several hours to weeks. The bands observed in the autoradipgraphs representing the gels reflect kinase activities. […] The band intensities on the autoradiography film are quantitated by densitometry and comparisons between bands from untreated controls and bands from echistatin-treated cells provide the basis for the analyses.

50 kDa Kinase [3] = test: in-gel kinase assay (myelin basic protein substrate) in purified preosteoclasts; assay type: cell-based, mouse
Method: (§2) The following procedure is a modification of Wesolowski et al. (1995, Exp. Cell Res. 219: 679-686), which is incorporated by reference herein in its entirety. Cocultures are made by adding marrow cells from 6-week old mouse tibia and femur onto a monolayer of MB 1.8 mouse calvaria osteoblasts that are preseeded into culture dishes in α-MEM (minimal essential medium) containing fetal calf serum (10%) and 1,25 Dihydroxy Vitamin D3 (10 nM). Cocultures are maintained, with media changes every 48 hours, for a period of 6 days. Non-osteoclastic cells are removed by treatment of cocultures with Collagenase I (1 mg/ml in Phosphate Buffered Saline [PBS]). Collagenase-sensitive cells are removed by washing with PBS. Preosteoclasts are lifted from the dish using EDTA (0.2 g/L in PBS) and transferred into culture dishes and maintained in α-MEM containing fetal calf serum (10%), 1,25 Dihydroxy Vitamin D3 (10 nM), and m-Colony Stimulating Factor (5 ng/ml). Osteoclast-like cells (collagenase-insensitive, EDTA-insensitive cells) that remain attached to the original coculture dishes are maintained in α-MEM containing fetal calf serum (10%), 1,25 Dihydroxy Vitamin D3 (10 nM), and m-Colony Stimulating Factor (5 ng/ml).
as §1

[4] = tested on: approximately 60 kDa kinase doublet (Mst 1, Mst 2); test: as above; assay type: cell-based, mouse
Method: as §2, §1

Mst 1, Mst 2 [5] = test: in-gel kinase assay in HEK 293 transfectants expressing human αvβ3 integrin; assay type: cell-based; conditions: αvβ3 integrin transfected HEK 293 cells
34 kDa Kinase = test: in-gel kinase assay in osteoclast-like cells; assay type: cell-based, mouse
Method: as §2, §1
A similar approach is also used to assay for the 34 kDa Kinase and the 130 kDa Kinase.
Osteoclast-like cells are generated as described in Example 1. The compound or compounds to be evaluated are added at the desired concentration to the osteoclast-like cells for any of various times (1 minute to several hours). Cell lysates are made using standard techniques and in-gel kinase assays are performed as described in Example 2.

50 kDa Kinase [6] = test: in-gel kinase assay in Parental HEK 293 cells; assay type: cell-based, human; conditions: 10-60 min (FIG. 5D-5F), Ala^24 echistatin 30 nM
Mst 1, Mst 2 [7] = test: in-gel kinase assay in Parental HEK 293 cells; assay type: cell-based, human; conditions: 10-60 min (FIG. 5D-5F), Ala^24 echistatin 30 nM
[8] = osteoclast like cells, 30 μM and 100 μM, about 17 hours (FIG. 6)
[9] = osteoclast-like cells, 100 μM and 300 μM (FIG. 9)
[10] = dose response, standard (overnight) film exposure (FIG. 2A)

## O=P(O)(O)C(Cl)(Cl)P(=O)(O)O [Clodronate, 1,1-dichloromethylene-1,1-diphosphonic acid]
[1]
  activation of the 34 kDa Mst kinase: also induce

## O=C(NC[C@H](NS(=O)(=O)c1ccccc1)C(=O)O)c1ccc(OCCNC2=NCCCN2)cc1 [RGD II, (2-[N-(3,4,5,6-tetrahydropyrimidin-2-yl)amino]ethyloxyphen-4-yl)carbonyl-2(S)-phenylsulfonamido-beta-alanine]
50 kDa Kinase [2]; 10 μM, 0-60 min (FIG. 5B)
  change in 50 kDa Kinase activity: increase
Stress reponsive kinases
  activation of stress responsive kinases: activate
50 kDa Kinase [3]; 10 μM (FIG. 4B)
  activation of 50 kDa kinase: effective in activating
[4]; 10 μM (FIG. 4B)
  activation of Mst 1, Mst 2: effective in activating
Mst 1, Mst 2 [5]; 10 μM, 0-60 min (FIG. 5B)
  change in Mst 1 (ca. 59 kDa), Mst 2 (ca. 60 kDa) activities: increase

## Cl.Cl.Cl.O=C(O)C[C@H](Cc1cnc2ccccc2c1)NC(=O)CN1CC[C@H](NCc2ccc3c(n2)NCCC3)C1=O [RGD I]
Stress reponsive kinases
  activation of stress responsive kinases: activate
50 kDa Kinase [3]; 10 nM (FIG. 4B)
  activation of 50 kDa kinase: effective in activating
[4]; 10 nM (FIG. 4B)
  activation of Mst 1, Mst 2: effective in activating

## NCCCC(O)(P(=O)(O)O)P(=O)(O)O [alendronate, 4-amino-1-hydroxybutylidene-1,1-bisphosphonic acid monosodium trihydrate]
[1]
  activation of the 34 kDa Mst kinase: induce activation
Stress reponsive kinases
  activation of stress responsive kinases: activate
34 kDa Kinase; osteoclast like cells, 30 μM (FIG. 7, lane 2)
  activation of 34 kDa Kinase: activation
34 kDa Kinase; [8]
  activation of 34 kDa Kinase: activation
34 kDa Kinase; osteoclast-like cells, 10 μM and 30 μM, about 17 hours (FIG. 9)
  activation of 34 kDa Kinase: activation
34 kDa Kinase; osteoclast-like cells, 30 μM (FIG. 10, lane 3)
  activation of 34 kDa Kinase immunoprecipitated by anti-Mst and anti-Krs antibody cocktail: activated
34 kDa Kinase; osteoclast-like cells, in the presence of Z—VAD—FMK (FIG. 9, lane 8)
  activation of 34 kDa Kinase when coincubated with caspase inhibitor Z—VAD—FMK: does not activate

## CC(O)(P(=O)(O)O)P(=O)(O)O [etidronate disodium, 1-hydroxyethane-1,1-diphosphonic acid]
[1]
  activation of the 34 kDa Mst kinase: to a lesser extent
34 kDa Kinase; [8]
  activation of 34 kDa Kinase: failed to activate
34 kDa Kinase; [9]
  activation of 34 kDa Kinase: failed to activate

## CC(C)=CCCC(C)=CCCC(C)=CCO [farnesol]
[1]
  blocking of lovastatin effects (34 kDa Mst 1 activity): not
  reduction of alendronate- and risedronate-induced Mst 1 cleavage: about 50%

## CC(C)=CCC/C(C)=C/CC/C(C)=C/CC/C(C)=C/CO [geranylgeraniol]
[1]
  blocking of alendronate- and risedronate-induced Mst 1 cleavage: essentially completely blocked
  blocking of clodronate effects (34 kDa Mst kinase): not blocked
  blocking of lovastatin effects (34 kDa Mst 1 activity): blocked
34 kDa Kinase; osteoclast like cells, 10 μM geranyl geraniol (FIG. 7, lane 3)
  effect on activation of 34 kDa Kinase by 30 μM alendronate monosodium trihydrate: negates this activation

## CC[C@H](C)C(=O)O[C@H]1C[C@@H](C)C=C2C=C[C@H](C)[C@H](CC[C@@H]3C[C@@H](O)CC(=O)O3)[C@H]21 [lovastatin]
[1]; treatment for 17-24 hours
  34 kDa Mst 1 activity: increases

## C[C@@]1(O)CCOC(=O)C1 [mevalonic acid lactone]
[1]
  reduction of alendronate- and risedronate-induced Mst 1 cleavage: about 50%

## C[C@@](O)(CCO)CC(=O)O [mevalonic acid]
[1]
  blocking of lovastatin effects (34 kDa Mst 1 activity): blocked

## NCCC(O)(P(=O)(O)O)P(=O)(O)O [pamidronate, 3-amino-1-hydroxypropylidene-1,1-bisphosphonic acid]
[1]
  activation of the 34 kDa Mst kinase: induce activation

## O=P(O)(O)C(O)(Cc1cccnc1)P(=O)(O)O [risedronate, 1-hydroxy-2-(3-pyridinyl)-ethylidene-1,1-bisphosphonic acid]
[1]
  activation of the 34 kDa Mst kinase: induce activation

## O=P(O)(O)C(Sc1ccc(Cl)cc1)P(=O)(O)O [tiludronate disodium, (4-chlorophenyl)thiomethane-1,1-disphosphonic acid]
34 kDa Kinase; [8]
  activation of 34 kDa Kinase: failed to activate
34 kDa Kinase; [9]
  activation of 34 kDa Kinase: failed to activate

## calcitonin
Stress reponsive kinases
  activation of stress responsive kinases: activate

## echistatin
50 kDa Kinase [6]
  effect on activity of 50 kDa Kinase: no significant effect
50 kDa Kinase [2]; 30 nM, 0-60 min (FIG. 5A, 5C)
  change in 50 kDa Kinase activity: increase
Stress reponsive kinases
  activation of stress responsive kinases: activate
Mst 1, Mst 2 [7]
  effect on activities of Mst 1, Mst 2: no significant effect
50 kDa Kinase [3]; 30 nM, time course (FIG. 1B)
  activation of kinase of approximately 50 kDa: also activated
50 kDa Kinase [3]; 30 and 100 nM doses, extended (about 3-4 days) exposure (FIG. 2B)
  activation of the approximately 50 kDa kinase: activation
[4]; 30 nM, time course (FIG. 1B)
  activation of approximately 60 kDa kinase doublet: strongly activated
[4]; [10]
  concentration of maximal activities of approximately 60 kDa kinase doublet: about 30 nM
  concentrations showing activation of approximately 60 kDa kinase doublet: ≥ 10 nM
[4]; timecourse (FIG. 4A)
  treatment time of maximal kinase activity: 20 min
Mst 1, Mst 2 [5]; 30 nM, 0-60 min (FIG. 5A, 5C)
  change in Mst 1 (ca. 59 kDa), Mst 2 (ca. 60 kDa) activities: increase
